Results on 74 compounds are retold here after the supplement of paper PMC10290057.
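Also: Luminescence-based viability readout, five doses per compound, normalized against on-plate DMSO and empty-well controls, followed by dose-response curve fitting for every drug.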

The experiment deals with HCT116. Kind of experiment: efficacy (fitted maximal change in viability relative to DMSO control); higher = less cytotoxic (negative = loss of viability). Particulars: 48 h.
For the compound `c1ccc(-c2nn3c(c2-c2ccnc4cc(OCCN5CCOCC5)ccc24)CCC3)nc1`, the efficacy is -41.1%.

Regarding `CC(=O)O/N=C1\C(=O)N(Cc2cc(Cl)ccc2Cl)c2ccc(Cl)cc21`, the efficacy was -71.8%.

Regarding `CC(C)(N[S+](=O)([O-])c1ccc2c(Cl)cnc(NC(=N)N)c2c1)C(=O)O`, the efficacy was -7.17%.

For the compound `CC(C)(O)CCc1ccc(OCc2cc(-c3cccc(OC(F)F)c3)c3ncccc3c2)cc1`, the efficacy is -82%.

On to `CC(C)N(CCCNC(=O)Nc1ccc(C(C)(C)C)cc1)C[C@H]1O[C@@H](n2ccc3c(N)ncnc32)[C@H](O)[C@@H]1O`, for which the efficacy was -31.1%.

`Cc1nc2cc(C(=O)N3CCC4(CC3)CC(=O)c3c(cnn3C(C)C)C4)ccc2[nH]1`: the efficacy is -35.5%.

`Cc1ccc(/C=N/NC(=O)c2ccccc2Oc2ccccc2)o1`: the efficacy was -6.56%.

As to `Cc1ccnc(N[S+](=O)([O-])c2ccc(NC(=O)Nc3ccc([S+](=O)([O-])Nc4nccc(C)n4)cc3)cc2)n1`, the efficacy was -21.3%.

With `Cc1c(Cn2c(C)nc3c(C(=O)O)cc(N4CCOCC4)cc32)cccc1C(F)(F)F`, the efficacy was -10.9%.

In the case of `Cc1ncc(Cl)cc1NCc1ccc(C(=O)NC(CC2CCCC2)C(=O)NC2CC2)s1` (centres undefined), the efficacy is -78.2%.

For the compound `CCc1c(C(=O)NNC(=O)[C@@H](O)c2cc(F)cc(F)c2)ccc(O)c1C`, the efficacy is -5.46%.

Turning to `CCc1cc(Nc2nccc(-c3c(-c4ccc(OC)c(C(=O)Nc5c(F)cccc5F)c4)nc4ccccn34)n2)c(OC)cc1N1CCC(N2CCN([S+](C)(=O)[O-])CC2)CC1`, the efficacy is -21%.

For the compound `CCCCOc1ccc(C(=O)Nc2ccc(F)cc2F)cc1`, the efficacy is -14.8%.

For `CCCCOCCOc1nc(-c2ccc(C(=O)O)c(F)c2)sc1C`, the efficacy is -10%.

With `CCN(CC)C(=O)Cc1csc(N[S+](=O)([O-])c2cccc(Cl)c2C)n1`, the efficacy is -27.3%.

For `CCN([C@H]1CC[C@@H](CC1)N(C)CCOC)C2=C(C)C(=CC(=C2)C#CCN3CCOCC3)C(=O)NC\C4=C(C)\C=C(\C)NC4=O`, the efficacy is -10.4%.

In the case of `CCOc1cc(/C=C2/C(=O)N(c3ccccc3)N=C2C)cc(Cl)c1OCC(=O)OC`, the efficacy was -22.5%.

Consider `CCOC1=CC=C(C=C1)N2C(=O)C3=CC=CN=C3/N=C2/[C@@H](C)N(CC4=CC=CN=C4)C(=O)CC5=CC=C(F)C(=C5)C(F)(F)F`, for which the efficacy was -9.22%.

As to `Cc1cnc(NC(=O)c2cc(Oc3cnc(C(=O)N(C)C)nc3)c3cc(C)oc3c2)cn1`, the efficacy was -6.07%.

For the compound `Cc1cc(NC(=O)Nc2ccc(N(C)C)cc2)c2cc(F)cc(F)c2n1`, the efficacy was -37.6%.

Regarding `CN(C)c1ccc(Nc2nc(N)n(C(=O)c3c(F)cccc3F)n2)cc1`, the efficacy was -100%.

Consider `Cc1ccc(NC(=O)c2cccc(N(C)C)c2)cc1NC(=O)c1ccc(O)cc1`, for which the efficacy is -21.6%.

Regarding `Cc1nn(C)c(COc2ccc(N3CCN([S+](=O)([O-])N(C)C)CC3)cc2)c1-c1cccc2c(CCCOc3cccc4ccccc34)c(C(=O)O)n(CCN3CCOCC3)c12`, the efficacy is -17.2%.

Take `CN1C(=O)C(=C\C2=C1N=C(NC3=CC=CC(=C3)C(O)=O)N=C2)/C4=C(Cl)C=CC=C4Cl`: the efficacy is -10.3%.

On to `CN1CCN(c2ccc([N+](=O)[O-])c3no[n+]([O-])c23)CC1`, for which the efficacy was -19.8%.

For `Cc1c(-c2c(-c3ccc(F)o3)sc3ncnc(O[C@@H](Cc4ccccc4OCc4ccnn4CC(F)(F)F)C(=O)O)c23)ccc(OCCN2CCN(C)CC2)c1Cl`, the efficacy was 9.5%.

On to `CNc1nc(C)nc(N[C@H]2CCC[C@@H](C(=O)NCc3ccc(C#N)cc3C(F)(F)F)C2)n1`, for which the efficacy is -20.5%.

For the compound `COC(=O)N(CC(=O)O)Cc1cccc(OCc2nc(-c3ccc(Cl)cc3)oc2C)c1`, the efficacy was -8.59%.

Take `COC1(C[S+]([O-])c2ccccc2)CCN(CCc2c[nH]c3ccc(F)cc23)CC1` (centres undefined): the efficacy is -18.2%.

As for `COc1cc(OC)c(NC(=O)Nc2cc(C)on2)cc1Cl`, the efficacy is -7.13%.

For `COC1=C(OC)C=C2C(=CC=NC2=C1)OC3=CC=C(NC(=O)\C4=C\N(C(C)C)C(=O)N(C4=O)C5=CC=C(F)C=C5)C=C3F`, the efficacy is -13.9%.

For the compound `COc1cc[nH]c2ncc(C(=O)C(=O)N3CCN(C(=O)c4ccccc4)C[C@H]3C)c1-2`, the efficacy was -10.7%.

Turning to `COC1=CC=C(Cl)C=C1\C2=C\C(=O)NC(=S)N2CC(N)=O`, the efficacy is -13.9%.

As for `COc1ccc2cc(OCC3(C(=O)O)CN(C(=O)c4ccc(F)cc4)C3)ccc2c1`, the efficacy is -11.6%.

`COc1ccc2c(c1)CC[C@@H](CN(C)CC(=O)O)[C@H]2c1ccccc1`: the efficacy was -15.5%.

As to `COc1cccc(Nc2c(C(N)=O)cnc3c(C)cc([S+](=O)([O-])c4cccc(C(=O)N(C)C)c4)cc23)c1`, the efficacy was -45.1%.

On to `C=CC(=O)N[C@H]1CN(c2nc(Nc3cn(C)nc3OC)c3ncn(C)c3n2)C[C@@H]1F`, for which the efficacy was -68%.

As for `COC1CCC(C(=O)c2ccc3nc4c(cc3c2)CCCO4)CC1` (centres undefined), the efficacy was -17.2%.

For the compound `CO[C@H]1CC[C@]2(CC1)CC3=C(C=C(C=C3)C4=CN=CC(=C4)C#CC)[C@@]2/5\N=C(C)/C(=N5)N`, the efficacy is -11.3%.

As for `C[C@H](c1ccc(F)cc1CCCC(=O)O)N(c1cc(F)ccc1F)[S+](=O)([O-])c1ccc(Cl)cc1`, the efficacy is -30.3%.

For `C[C@@H]1CCN(C(=O)N2CCCC2)C[C@@H]1N(C)c1ncnc2[nH]ccc12`, the efficacy is -8.82%.

Turning to `C=CC(=O)N1C[C@H](Nc2ncnc3[nH]ccc23)CC[C@@H]1C`, the efficacy was -26.7%.

`Cn1cc(-c2ccc3nnc(C(F)(F)c4ccc5ncccc5c4)n3n2)cn1`: the efficacy is -26.2%.

For the compound `Cc1cc(C)c2c(c1)[C@@H](N(Cc1cc(C(F)(F)F)cc(C(F)(F)F)c1)c1nnn(C)n1)CCCN2C[C@H]1CC[C@H](C(=O)O)CC1`, the efficacy is -31.2%.

`Clc1cccc(-n2nnnc2NCc2ccccc2Oc2ccccn2)c1Cl`: the efficacy was -32%.

In the case of `Clc1ccc2ncc(-c3cccc(NC4CNC4)n3)n2c1`, the efficacy is -10.1%.

As for `O=C1NC(=O)/C(=C/c2ccc3c(c2)OC(F)(F)O3)S1`, the efficacy is -22.5%.

Consider `O=C(Nc1ccc(F)c(C(F)(F)F)c1)Nc1nnc(-c2ccncc2)s1`, for which the efficacy is -29%.

Consider `O=C1CC(c2c[nH]c3ccc(F)cc23)C(=O)N1` (centres undefined), for which the efficacy was -7.69%.

Consider `NC(=O)c1noc([C@H](CCCC2CCCCC2)CC(=O)NO)n1`, for which the efficacy is -86.4%.

Regarding `NC(=O)[C@@H](CC1CC1)[C@@H](CCC(F)(F)F)C(=O)N[C@H]2\N=C(C3=CC=CC=C3)/C4=CC=CC(=C4NC2=O)F`, the efficacy is -12.2%.

`NC(CC1c2ccccc2Oc2ccccc21)(C(=O)O)C1CC1C(=O)O` (centres undefined): the efficacy is -10.8%.

For the compound `Nc1nc(N)c2nc(-c3cccc(O)c3)c(-c3cccc(O)c3)nc2n1`, the efficacy is -7.47%.

For `Nc1nccc(-c2c(-c3ccc(F)cc3)ncn2C2CCCCC2)n1`, the efficacy was -55.4%.

On to `Nc1nc(OC(c2ccc(-c3cccc(F)c3)cc2)C(F)(F)F)cc(-c2ccc(C[C@@H](N)C(=O)O)cc2)n1` (some centres undefined), for which the efficacy is -26%.

With `O=C1N\N=C(\C[C@@H]2CCN(C2)C(=O)C3CC3)N1C4=CC=C(C=C4)C5=CC=C6OC=CC6=C5`, the efficacy was -40.3%.

Turning to `O=C(O)c1ccc(-c2c[nH]c3ncc(-c4ccccc4)cc23)cc1C1CCCC1`, the efficacy was -22.5%.

As to `O=C(O)c1ccc(CN2CCC(CN[C@@H]3C[C@H]3c3ccccc3)CC2)cc1`, the efficacy was -14.1%.

Consider `O=C(Nc1ccccc1)Nc1ccc(-c2ccc(C(=O)[C@@H]3CCC[C@H]3C(=O)O)cc2)cc1`, for which the efficacy is -8.51%.

As to `O=C1NC(=O)/C(=C/c2ccc(-c3ccc(F)cc3O)o2)S1`, the efficacy is -29.8%.

On to `O=C(NOCCO)c1cc(CN2OCCCC2=O)c(F)c(F)c1Nc1ccc(I)cc1F`, for which the efficacy was -60.6%.

For the compound `O=C(NC[C@H](O)CN1CCc2ccccc2C1)c1ccnc(NC2CCC2)c1`, the efficacy was -5.9%.

As for `O=C(NC[C@H](O)CN1CCc2ccccc2C1)c1cc(NC2COC2)ncn1`, the efficacy came out at 13%.

Turning to `c1cc(-c2sc(-c3ccncc3)c(-c3ccncc3)c2-c2ccncc2)ccn1`, the efficacy was -13.8%.

Consider `O=[N+]([O-])c1ccc(-c2nc(-c3ccc(F)cc3)c(-c3ccncc3)[nH]2)cc1`, for which the efficacy was -23.7%.

`OC[C@H]1O[C@@H](O[C@@H]2[C@@H](CO)OC(O)(CO)[C@H]2O)[C@H](O)[C@@H](O)[C@H]1O` (mixture of isomers) [Lactulose]: the efficacy stood at 9%.

Regarding `CC[S+](=O)([O-])N1CCC([C@@H](C)n2c(C)c(/C(O)=N/Cc3c(OC)cc(C)nc3O)c3ccccc32)CC1` (racemic) [CPI-169 racemate], the efficacy was -16.2%.

As for `CN1CCN(C)C(=O)C1C2=CC=C(N/C3=N/C(=C\N(C)C3=O)C4=C(C)C(=CC=C4)NC(=O)C5=CC6=C(CCCC6)S5)C=C2` (racemic) [GDC-0834 racemate], the efficacy was -21.2%.

In the case of `OC[C@H]1OC(O)C[C@@H](O)[C@@H]1O` (some centres undefined) [2-Deoxyglucose], the efficacy is -11.9%.

As to `N=C1N[C@H]2[C@H](CS[C@H]2CCCCC(=O)O)N1` [2-Iminobiotin], the efficacy is 16%.

As to `O=C(O)CCCc1c[nH]c2ccccc12` [3-indolebutyric acid], the efficacy worked out at 15%.

On to `Nc1ncnc2ccccc12` [4-Quinazolinamine], for which the efficacy was -11.9%.

Turning to `N[C@@H](Cc1c[nH]c2ccc(O)cc12)C(=O)O` [5-Hydroxytryptophan], the efficacy is -7.82%.

As for `Nc1ncnc2c1nc(Cl)n2[C@@H]1O[C@H](CO)[C@@H](O)[C@H]1O` [8-Cl-Ado], the efficacy is -73.3%.
